Results reported in PubChem BioAssay AID743436 (The Scripps Research Institute Molecular Screening Center, 2014).
Activity calls are given as the source filed them. No rule for the calls is given here.

system: S1PR3 cell line viability, luminescence counterscreen; assay: cytotoxicity of test compounds, late-stage follow-up, cytotoxicity control for S1PR3 antagonist project, cell-based, luminescence (AID 743436)

Compound | CC50
O=C(NC(Cc1ccccc1)c1nc(-c2ccccc2)no1)c1cccc(Cl)c1 (stereo unspecified) | > 28.2 µM (inactive)
Clc1ccc(CNC(c2ccccc2)c2nc(-c3ccccc3)no2)cc1Cl (stereo unspecified) | > 28.2 µM (inactive)
O=C(NC(c1ccc(Cl)cc1)c1nc(-c2ccccc2)no1)c1cccc(Br)c1 (stereo unspecified) | > 28.2 µM (inactive)
O=C(NC(c1ccc(Cl)c(Cl)c1)c1nc(-c2ccccc2)no1)c1ccccc1 (stereo unspecified) | 24.7 µM (inactive)
O=C(Nc1ccc(Cl)c(Cl)c1)NC(c1ccccc1)c1nc(-c2ccccc2)no1 (stereo unspecified) | 7.7 µM
N#Cc1ccc(C(=O)NC(c2ccc(Cl)c(Cl)c2)c2nc(-c3ccccc3)no2)cc1 (stereo unspecified) | > 28.2 µM (inactive)
Cc1ccc(C(NC(=O)c2cccc(Cl)c2)c2nc(-c3ccccc3)no2)cc1 (stereo unspecified) | > 28.2 µM (inactive)
O=C(NC(c1ccccc1)c1nc(-c2ccccc2)no1)c1cccc(Cl)c1 (stereo unspecified) | > 28.2 µM (inactive)
O=C(NC(c1ccc(Cl)c(Cl)c1)c1nc(-c2ccccc2)no1)c1ccc(Cl)cc1 (stereo unspecified) | > 28.2 µM (inactive)
Cc1ccc(C(=O)NC(c2ccccc2)c2nc(-c3ccccc3)no2)cc1 (stereo unspecified) | > 28.2 µM (inactive)
COc1ccc(C(=O)NC(c2ccccc2)c2nc(-c3ccccc3)no2)cc1 (stereo unspecified) | > 28.2 µM (inactive)
O=C(NC(c1ccc(Br)cc1)c1nc(-c2ccccc2)no1)c1ccc(Cl)c(Cl)c1 (stereo unspecified) | > 28.2 µM (inactive)
O=C(NC(c1ccc(Cl)c(Cl)c1)c1nc(-c2ccccc2)no1)c1ccc(Cl)c(Cl)c1 (stereo unspecified) | > 28.2 µM (inactive)
CCc1ccc(C(NC(=O)c2cccc(Cl)c2)c2nc(-c3ccccc3)no2)cc1 (stereo unspecified) | > 28.2 µM (inactive)
O=C(NC(c1cccc(Cl)c1)c1nc(-c2ccccc2)no1)c1cccc(Cl)c1 (stereo unspecified) | > 28.2 µM (inactive)
O=C(NC(c1cccc(Cl)c1)c1nc(-c2ccccc2)no1)c1ccc(Cl)c(Cl)c1 (stereo unspecified) | > 28.2 µM (inactive)

Compound | CC50
O=C(Cc1ccc(Cl)c(Cl)c1)NC(c1ccccc1)c1nc(-c2ccccc2)no1 (stereo unspecified) | > 28.2 µM (inactive)
O=C(NC(c1nc(-c2ccccc2)no1)C1CCCCC1)c1ccc(Cl)c(Cl)c1 (stereo unspecified) | > 28.2 µM (inactive)
O=C(c1cccc(Cl)c1)N(CCO)C(c1ccc(Cl)c(Cl)c1)c1nc(-c2ccccc2)no1 (stereo unspecified) | > 28.2 µM (inactive)
O=C(NC(c1ccc(Cl)c(Cl)c1)c1nc(-c2ccccc2)no1)c1cccc(Cl)c1 (stereo unspecified) | > 28.2 µM (inactive)
O=C(NC(c1ccc(Cl)cc1)c1nc(-c2ccccc2)no1)c1ccc(Cl)c(Cl)c1 (stereo unspecified) | > 28.2 µM (inactive)
O=C(NC(c1ccccc1)c1nc(-c2ccccc2)no1)c1cccc(Cl)n1 (stereo unspecified) | > 28.2 µM (inactive)
O=C(NC(c1ccc(Cl)cc1)c1nc(-c2ccccc2)no1)c1cccc(Cl)c1 (stereo unspecified) | > 28.2 µM (inactive)
O=C(NC(c1cccc(Cl)c1)c1nc(-c2ccccc2)no1)c1cc(Cl)cc(Cl)c1 (stereo unspecified) | > 28.2 µM (inactive)
O=C(NC(c1ccccc1)c1nc(-c2ccccc2)no1)c1cccc(Br)c1 (stereo unspecified) | > 28.2 µM (inactive)
O=C(NC(c1ccc(Cl)cc1)c1nc(-c2ccccc2)no1)c1ccc(Cl)c(Br)c1 (stereo unspecified) | > 28.2 µM (inactive)
O=C(NC(c1ccccc1)c1nc(-c2ccccc2)no1)c1ccc(Cl)c(Cl)c1 (stereo unspecified) | > 28.2 µM (inactive)
O=C(NC(c1nc(-c2ccccc2)no1)C1CCOCC1)c1ccc(Cl)c(Cl)c1 (stereo unspecified) | > 28.2 µM (inactive)
O=C(NC(c1ccccc1)c1nc(-c2ccccc2)no1)c1ccc(Cl)cc1 (stereo unspecified) | > 28.2 µM (inactive)
O=C(NC(c1ccc(Cl)cc1)c1nc(-c2ccccn2)no1)c1cccc(Cl)c1 (stereo unspecified) | > 28.2 µM (inactive)
O=C(NC(c1ccc(Cl)cc1)c1nc(-c2cccc(Cl)c2)no1)c1cccc(Cl)c1 (stereo unspecified) | > 28.2 µM (inactive)
